These results are taken from patent US10513694B2, “Thienopyrrole compounds and uses thereof” (PROMEGA CORPORATION, priority 2015, dated 2019).

The test system of data set [1] is SRC-Nluc or Nluc-HaloTag. Put plainly: Inhibition of extracellular luciferase activity (SRC-Nluc / Nluc-HaloTag BRET). Format: cell-based. The note with it: HEK293; 1 μM Dasatinib-DY605 (SRC-Nluc) or 100 nM NanoBRET-618 (Nluc-HaloTag). How it is done:
HEK293 were transiently transfected with either SRC-Nluc or Nluc-HaloTag. 24 hrs post-transfection, 20 k/cells were plated into wells of a 96-well plate (Costar 3600). 1 μM of the cell impermeable tracer Dasatinib-DY605 was added to the HEK293 SRC-Nluc expressing cells, and 100 nM of the cell permeable tracer NanoBRET-618, was added to the Nluc-HaloTag expressing cells. Both HEK293 SRC-Nluc and Nluc-HaloTag cells were exposed to a dose-response curve of JRW-0344.

The subject of data set [2] is UltraGlo luciferase. Kind of data set: Specificity of inhibition of Nluc luciferase: UltraGlo luciferase. Particulars: RT 2 hrs. The class given is biochemical, firefly. As for the experimental part: The following example describes the specificity of disclosed thienopyrrole compounds, JRW-0251, JRW-0344, and JRW-0147, to inhibit Nluc luciferase activity versus firefly luciferase activity, e.g., ULTRAGLO® luciferase. In a Corning 3570 assay plate, a solution containing 1 μM luciferin in Luciferase Detection Reagent (Promega Corporation V865/859) was added to the assay wells. An equal volume of titrations the thienopyrrole compounds, JRW-0251, JRW-0344, and JRW-0147 were then added to the wells. The reactions were incubated at RT for 2 hrs, and luminescence was measured on Tecan M1000 Pro plate reader.

Data set [3] relates to HEK293 cells. Kind of data set: Cell viability and toxicity (CellTiter-Glo). Format: cell-based. Particulars: up to 100 μM after 18 hrs. As for the experimental part:
HEK293 cells were plated at 20 k cells/well and exposed to vehicle (DMSO), digitonin (positive control for cell death), or JRW-0344 for 10 min/30 min/120 min/240 min/or 18 hrs. CellTiter-Glo (Promega Corp.) was added, and luminescence measured.
(In general: Cellular ATP, detected with luciferase, serves as a proxy for viable cell number.)

Data set [4] has as its system Nluc enzyme. Put plainly: Multiplex RealTime-Glo / Caspase-Glo 3/7 in MCF7 cells. The class given is cell-based. How it is done:
(§1) A) In a Corning 3570 assay plate, MCF7 cells were plated at 1,000 cells/well in 20 μL of cell culture media (EMEM supplemented with 0.01 mg/mL human recombinant insulin and 10% fetal bovine serum) and incubated in overnight. 10 μL of 4× REALTIME-GLO™ MT Cell Viability reagents (Promega Corporation) in media or 10 μL media only was added to the cells. 10 μL of 40 μM staurosporine in media or 10 μL media only (control) was added to the cells. The cells were incubated, and caspase activation monitored at 5.5 hrs post-reagent addition. To monitor caspase activation, 40 μL CASPASE-GLO® 3/7 Assay Reagent (Promega Corporation), either on its own (Caspase) or with 200 μM of JRW-0004, JRW-0013, or JRW-0042, was added. Reactions were incubated at RT, and luminescence was measured at 1 hr 10 min post-reagent addition on Tecan M1000 Pro plate reader.
(§2) When comparing the signal generated from the CASPASE-GLO® reagent in media only versus the signal generated in media containing REALTIME-GLO™ reagent, the signal is higher in the multiplex reaction.

Data set [5] has as its target Nluc (Oplophorus gracilirostris, UniProt Q9GV45, A31E/A60N/A81I/F95D/I117V/K70R/L54V/L99Q/M102K/N193R/P142E/Q151K/Q38R/Q45L/V71I/Y165I). The description is as above. Format: cell-based. Details: purchased Promega Corporation. How it is done: as §1, §2
In data set [6] the test system is Src-Nluc fusion protein. Put plainly: Target engagement model (Src-Nluc BRET). Format: cell-based. Particulars: HEK293 Src-Nluc -/+ 50 μg/mL digitonin; 1 μM Dasatinib-DY605 tracer; 2 hrs. As for the experimental part:
HEK293 cells were transiently transfected with Src-Nluc fusion protein. 24 hours post-transfection, cells were treated with −/+50 μg/mL digitonin to simulate a live and lytic scenario, respectively. Intact cells and permeabilized cells were labeled with 1 μM Dasatinib-DY605 tracer (impermeable) and treated with a cell impermeable thienopyrrole compound JRW-0147 response curve for 2 hrs. 10 μM furimazine was added, and a BRET ratio 610/450 nm was recorded.

Data set [7] has as its system B2AR-Nluc or Nluc-B2AR fusion protein. Put plainly: Cell permeability with bioluminescent imaging (HeLa, B2AR-Nluc / Nluc-B2AR). The class given is cell-based. Particulars: 30 μM compound, 10 μM furimazine. How it is done:
HeLa cells were transiently transfected with Beta-2 Adrenergic Receptor-Nluc (B2AR-Nluc; C-Terminus Nluc) or Nluc-Beta-2 Adrenergic Receptor (Nluc-B2AR; N-terminus Nluc) fusion protein to anchor and orient Nluc intracellularly or extracellularly, respectively. 24 hrs post-transfection, cells were treated with −/+30 μM of a thienopyrrole compound, JRW-0147, JRW-0051, and JRW-0138. 10 μM furimazine was added, and luminescence was detected by imaging on the Olympus LV200.

[8] abbreviates: 10 μM Stauro vs Control, 200 μM compound.
The mark [9] stands for this setting: CASPASE-GLO 3/7 reagent with 200 μM compound, 1 hr 10 min.

Each structure is given as a SMILES string.

Nluc, sequence (Q9GV45 28-196 with tags or gaps with the stated changes limits assumed): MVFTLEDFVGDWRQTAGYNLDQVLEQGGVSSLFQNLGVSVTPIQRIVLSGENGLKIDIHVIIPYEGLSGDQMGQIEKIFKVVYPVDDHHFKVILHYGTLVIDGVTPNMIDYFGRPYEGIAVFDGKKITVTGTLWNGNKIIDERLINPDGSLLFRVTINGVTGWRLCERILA

As to `CCN(C(=O)Cn1c(C(=O)N[C@H]2CC[C@H](C(=O)NCCCCCCS(=O)(=O)[O-])CC2)cc2sccc21)c1cccc(C)c1.[Na+]` [JRW-0344, Sodium 6-(trans-4-(4-(2-(ethyl(m-tolyl)amino)-2-oxoethyl)-4H-thieno[3,2-b]pyrrole-5-carboxamido)cyclohexane-1-carboxamido)hexane-1-sulfonate], the “Inhibition of BRET (FIGS. 20A-20C)” value in data set [1] was “inhibits BRET in cell debris in the HEK293 SRC-Nluc expressing cells, but not in HEK293 Nluc-HaloTag expressing cells”. Further, the “Inhibition of firefly luciferase activity (Table 3)” value in data set [2] was “did not inhibit the firefly luciferase activity”. For the same compound, the “UltraGlo luciferase, Avg (luminescence)” value in data set [2] ([cmpd] 0.1953125 μM) is 83526.33; in data set [2] ([cmpd] 0.390625 μM), 82945.67; in data set [2] ([cmpd] 0.78125 μM), 82135.67; in data set [2] ([cmpd] 1.5625 μM), 81368.33; in data set [2] ([cmpd] 3.125 μM), 80134.33; in data set [2] ([cmpd] 6.25 μM) it was 83064.33. The “UltraGlo luciferase, Avg (luminescence)” value is 82454.67 in data set [2] ([cmpd] 12.5 μM); 83084.00 in data set [2] ([cmpd] 25 μM); 81805.00 in data set [2] ([cmpd] 50 μM); 79847.67 in data set [2] ([cmpd] 100 μM); 77230.33 in data set [2] ([cmpd] 200 μM). For the same compound, the “UltraGlo luciferase, S/B” value in data set [2] ([cmpd] 0.1953125 μM) stood at 1.00; in data set [2] ([cmpd] 0.390625 μM) it was 1.00; in data set [2] ([cmpd] 0.78125 μM), 0.99; in data set [2] ([cmpd] 1.5625 μM), 0.98; in data set [2] ([cmpd] 3.125 μM), 0.96; in data set [2] ([cmpd] 6.25 μM), 1.00. The “UltraGlo luciferase, S/B” value in data set [2] ([cmpd] 12.5 μM) came to 0.99; in data set [2] ([cmpd] 25 μM), 1.00; in data set [2] ([cmpd] 50 μM) it was 0.98; in data set [2] ([cmpd] 100 μM) it was 0.96; in data set [2] ([cmpd] 200 μM), 0.93. For the same compound, the “Toxicity (FIG. 18A)” value in data set [3] is reported as “no apparent toxicity”.
As to `CCN(C(=O)Cn1c(C(=O)N[C@H]2CC[C@H](C(=O)OC)CC2)cc2sccc21)c1cccc(C)c1` [JRW-0013, trans-methyl-4-(4-(2-(ethyl(m-tolyl)amino)-2-oxoethyl)-4H-thieno[3,2-b]pyrrole-5-carboxamido)cyclohexane-1-carboxylate], the “Fold Cont, Media only” value in data set [4] (setting [8]) was 6.85. For the same compound, in data set [4] (setting [9]), the “Avg (luminescence), Media only, 10 μM Stauro” value came out at 55282 and the “Avg (luminescence), Media only, Control” value was 8069. In data set [5] (setting [8]), the “Fold Cont, Media containing RealTime-Glo” value amounted to 6.29. In data set [5] (setting [9]), the “Avg (luminescence), Media containing RealTime-Glo, 10 μM Stauro” value is listed as 54338 and the “Avg (luminescence), Media containing RealTime-Glo, Control” value was determined as 8636.
Turning to `CCN(C(=O)Cn1c(C(=O)N[C@H]2CC[C@H](C(=O)NCCCCCC(=O)O)CC2)cc2sccc21)c1cccc(C)c1` [JRW-0147, 6-(trans-4-(4-(2-(ethyl(m-tolyl)amino)-2-oxoethyl)-4H-thieno[3,2-b]pyrrole-5-carboxamido)cyclohexane-1-carboxamido)hexanoic acid], the “Inhibition of firefly luciferase activity (Table 3)” value in data set [2] was “did not inhibit the firefly luciferase activity”. The “UltraGlo luciferase, Avg (luminescence)” value in data set [2] ([cmpd] 0.1953125 μM) amounted to 85561; in data set [2] ([cmpd] 0.390625 μM), 84087; in data set [2] ([cmpd] 0.78125 μM), 84072; in data set [2] ([cmpd] 1.5625 μM), 83668; in data set [2] ([cmpd] 3.125 μM), 82252; in data set [2] ([cmpd] 6.25 μM), 83282. Besides, the “UltraGlo luciferase, Avg (luminescence)” value in data set [2] ([cmpd] 12.5 μM) turned out to be 83291; in data set [2] ([cmpd] 25 μM) it was 84033; in data set [2] ([cmpd] 50 μM), 81106; in data set [2] ([cmpd] 100 μM), 80636; in data set [2] ([cmpd] 200 μM), 78035. Moreover, the “UltraGlo luciferase, S/B” value in data set [2] ([cmpd] 0.1953125 μM) is 0.99; in data set [2] ([cmpd] 0.390625 μM) it was 0.97; in data set [2] ([cmpd] 0.78125 μM), 0.97; in data set [2] ([cmpd] 1.5625 μM), 0.97; in data set [2] ([cmpd] 3.125 μM), 0.95; in data set [2] ([cmpd] 6.25 μM), 0.97. Moreover, the “UltraGlo luciferase, S/B” value in data set [2] ([cmpd] 12.5 μM) amounted to 0.97; in data set [2] ([cmpd] 25 μM), 0.97; in data set [2] ([cmpd] 50 μM) it was 0.94; in data set [2] ([cmpd] 100 μM), 0.93; in data set [2] ([cmpd] 200 μM) it was 0.90. In addition, the “Inhibition of BRET in cell debris vs inside cells (FIGS. 15B-15C)” value in data set [6] was “inhibited BRET in cell debris, but not BRET inside cells”. Also, the “Permeability and inhibition of extracellular / intracellular Nluc by imaging (FIG. 14)” value in data set [7] was “impermeable and inhibited extracellular Nluc and enhanced intracellular Nluc”.
